From patent US20170318812A1, “Plant and Crop Growth Regulating/Biostimulant Formulations and Methods of Use” (Arysta Lifescience North America, LLC, priority 2014, published 2017)
“And” between values parts separate entries of the source, which are not always exact repeats. Equal entries are not always repeated.

What was measured:
[1] = test system: SORVU Sorghum bicolor (Grain sorghum); test: Ipfencarbazone biostimulant effect, early post emergence foliar application, greenhouse pots, plant height: sorghum; type: in vivo; details: SORVU DKB 590
Source text: (§1) The original objective of this Example was to evaluate the herbicidal effect of ipfencarbazone when applied as a post emergent treatment to a range of selected crops and weeds. Unexpectedly, crop plant growth stimulation was observed. The actual species of weeds and crops are listed in the summary data tabulated below and in FIGS. 1-13. By convention each plant species has a Bayer code (5-letter name) with the scientific name for the plant referenced in FIGS. 1-13. In each Figure, each tray contains the same configuration of weeds and/or crops. In each Figure there is one replication of each treatment (six treatments in total). The top three photographs in each Figure show the Bayer Codes and bottom three photographs are aligned with the top three facilitating viewing of the same plant species. Throughout the Examples various abbreviations as conventional shorthand notation and will be appreciated by those skilled in the art. Some exemplary abbreviations include, “CV”=Co-efficient of Variation,” “LSD”=Least Significant Difference” (G/L (gram per L) AND GA/L (gram of active ingredient per L); “SC”=suspension concentrate formulation. The diluent in all treatments was water. By convention factors that are identical in all treatments (e.g. diluent and surfactant) are not listed in each treatment.
(§2) Methods: The indicated size pots (see Tables below) are filled with a specific soil, the soil properties being indicated below. The referenced crops and weeds are planted by hand in each pot. […] The experiments include six treatments each replicated three times on each crop/weed species. At a specific time after emergence each crop and weed species was treated with ipfencarbazone plus a non-ionic surfactant (NIS). In the present Example, the surfactant employed was ENERGIC™ (non-ionic surfactant). The application timing is indicated in each of the Tables (1 or 2 leaf stage) below. Ipfencarbazone plus surfactant was diluted in water and applied at a rate equivalent to about 250 L/ha. Ipfencarbazone was applied using a track sprayer. After treatment, the pots were randomized in a greenhouse. At each assessment (indicated by “days after treatment” or DAT) the height of each plant was measured. The letters next to each mean indicate the level of statistical significance.
(§3) Replications: 3, Untreated treatments: 1, Design: Randomized Complete Block (RCB), Treatment units: Treated ‘Plot’ experimental unit size, Dry Form. Unit: %, Treated ‘Plot’ experimental unit size Width: 1 meter, Treated ‘Plot’ experimental unit size Length: 1.4 meters, Application volume: 250 L/ha, Mix size: 0.15 liters, […]

[2] = test system: PHSVX Phaseolus vulgaris (Garden bean); test: Ipfencarbazone biostimulant effect, early post emergence foliar application, greenhouse pots, plant height: dry bean; type: in vivo; details: PHSVX PEROLA
Source text: as §1, §2, §3

[3] = 125 g ai/ha, 28 DA-A, plots 103, 206, 305
[4] = 250 g ai/ha, 28 DA-A, plots 104, 201, 306
[5] = 500 g ai/ha, 28 DA-A, plots 105, 202, 301
[6] = 1000 g ai/ha, 28 DA-A, plots 106, 203, 304

Q: What does the source list for `CC(C)N(C(=O)n1cnn(-c2ccc(Cl)cc2Cl)c1=O)c1ccc(F)cc1F` [ARY-0572-001, ipfencarbazone]?
A: HEIGHT, treatment mean ([1]; 125 g ai/ha, 28 DA-A): 79.4 a cm and 79.4 cm; HEIGHT, single plots (replicates) [1, 3]: 102.7 cm and 71.3 cm and 64.3 cm; HEIGHT, percent of untreated check (APoC) ([1]; 250 g ai/ha, 15 DA-A): (252.1%); HEIGHT, treatment mean ([1]; 250 g ai/ha, 15 DA-A): 61.3 a cm; HEIGHT, percent of untreated check (APoC) ([1]; 250 g ai/ha, 28 DA-A): (355.0%); HEIGHT, treatment mean ([1]; 250 g ai/ha, 28 DA-A): 101.8 a cm and 101.8 cm; HEIGHT, single plots (replicates) [1, 4]: 101.3 cm and 104.0 cm and 100.0 cm; HEIGHT, percent of untreated check (APoC) ([1]; 500 g ai/ha, 15 DA-A): (248.2%); HEIGHT, treatment mean ([1]; 500 g ai/ha, 15 DA-A): 60.4 a cm; HEIGHT, percent of untreated check (APoC) ([1]; 500 g ai/ha, 28 DA-A): (266.7%); HEIGHT, treatment mean ([1]; 500 g ai/ha, 28 DA-A): 76.4 a cm and 76.4 cm; HEIGHT, single plots (replicates) [1, 5]: 44.7 cm and 89.7 cm and 95.0 cm; HEIGHT, percent of untreated check (APoC) ([1]; 1000 g ai/ha, 15 DA-A): (93.2%); HEIGHT, treatment mean ([1]; 1000 g ai/ha, 15 DA-A): 22.7 b cm; HEIGHT, percent of untreated check (APoC) ([1]; 1000 g ai/ha, 28 DA-A): (123.6%); HEIGHT, treatment mean ([1]; 1000 g ai/ha, 28 DA-A): 35.4 b cm and 35.4 cm; HEIGHT, single plots (replicates) [1, 6]: 75.3 cm and 9.3 cm and 21.7 cm; HEIGHT, percent of untreated check (APoC) ([2]; 62.5 g ai/ha, 15 DA-A): (105.6%); HEIGHT, treatment mean ([2]; 62.5 g ai/ha, 15 DA-A): 10.4 a cm and 10.4 cm; HEIGHT, single plots (replicates) ([2]; 62.5 g ai/ha, 15 DA-A, plots 102, 205, 302): 11.7 cm (2×) and 8.0 cm; HEIGHT, percent of untreated check (APoC) ([2]; 62.5 g ai/ha, 28 DA-A, AS square root transformation): (152.2%); HEIGHT, treatment mean ([2]; 62.5 g ai/ha, 28 DA-A, AS square root transformation (t)): 19.8 a cm and 19.8t cm; HEIGHT, single plots (replicates) ([2]; 62.5 g ai/ha, 28 DA-A, plots 102, 205, 302): 24.0 cm and 17.3 cm and 19.7 cm; HEIGHT, percent of untreated check (APoC) ([2]; 125 g ai/ha, 15 DA-A): (75.8%); HEIGHT, treatment mean ([2]; 125 g ai/ha, 15 DA-A): 7.5 ab cm and 7.5 cm; HEIGHT, single plots (replicates) ([2]; 125 g ai/ha, 15 DA-A, plots 103, 206, 305): 0.0 cm and 10.7 cm and 11.8 cm; HEIGHT, percent of untreated check (APoC) ([2]; 125 g ai/ha, 28 DA-A, AS square root transformation): (91.8%); HEIGHT, treatment mean ([2]; 125 g ai/ha, 28 DA-A, AS square root transformation (t)): 12.0 a cm and 12.0t cm; HEIGHT, single plots (replicates) [2, 3]: 4.3 cm and 16.0 cm and 20.3 cm; HEIGHT, percent of untreated check (APoC) ([2]; 250 g ai/ha, 15 DA-A): (5.6%); HEIGHT, treatment mean ([2]; 250 g ai/ha, 15 DA-A): 0.6 c cm and 0.6 cm; HEIGHT, single plots (replicates) ([2]; 250 g ai/ha, 15 DA-A, plots 104, 201, 306): 0.0 cm (2×) and 1.7 cm; HEIGHT, percent of untreated check (APoC) ([2]; 250 g ai/ha, 28 DA-A, AS square root transformation): (2.5%); HEIGHT, treatment mean ([2]; 250 g ai/ha, 28 DA-A, AS square root transformation (t)): 0.3 a cm and 0.3t cm; HEIGHT, single plots (replicates) [2, 4]: 0.0 cm (2×) and 2.0 cm; HEIGHT, percent of untreated check (APoC) ([2]; 500 g ai/ha, 15 DA-A): (6.7%); HEIGHT, treatment mean ([2]; 500 g ai/ha, 15 DA-A): 0.7 c cm and 0.7 cm; HEIGHT, single plots (replicates) ([2]; 500 g ai/ha, 15 DA-A, plots 105, 202, 301): 2.0 cm and 0.0 cm (2×); HEIGHT, percent of untreated check (APoC) ([2]; 500 g ai/ha, 28 DA-A, AS square root transformation): (155.1%); HEIGHT, treatment mean ([2]; 500 g ai/ha, 28 DA-A, AS square root transformation (t)): 20.2 a cm and 20.2t cm; HEIGHT, single plots (replicates) [2, 5]: 73.0 cm and 0.0 cm and 25.0 cm; HEIGHT, percent of untreated check (APoC) ([2]; 1000 g ai/ha, 15 DA-A): (59.0%); HEIGHT, treatment mean ([2]; 1000 g ai/ha, 15 DA-A): 5.8 b cm and 5.8 cm; HEIGHT, single plots (replicates) ([2]; 1000 g ai/ha, 15 DA-A, plots 106, 203, 304): 5.0 cm and 6.7 cm and 5.8 cm; HEIGHT, percent of untreated check (APoC) ([2]; 1000 g ai/ha, 28 DA-A, AS square root transformation): (51.7%); HEIGHT, treatment mean ([2]; 1000 g ai/ha, 28 DA-A, AS square root transformation (t)): 6.7 a cm and 6.7t cm; HEIGHT, single plots (replicates) [2, 6]: 6.3 cm and 7.3 cm and 6.7 cm
